{
  "source": "paper PMC9056950",
  "about": "“Synthesis and biochemical evaluation of cephalosporin analogues equipped with chemical tethers” (RSC Advances, 2020)",
  "key": {"PBP3": {"molecular_target": "T1, PBP3 (Escherichia coli, UniProt P0AD68)", "T1 construct": "gene ftsI", "T1 sequence (P0AD68 44-588)": "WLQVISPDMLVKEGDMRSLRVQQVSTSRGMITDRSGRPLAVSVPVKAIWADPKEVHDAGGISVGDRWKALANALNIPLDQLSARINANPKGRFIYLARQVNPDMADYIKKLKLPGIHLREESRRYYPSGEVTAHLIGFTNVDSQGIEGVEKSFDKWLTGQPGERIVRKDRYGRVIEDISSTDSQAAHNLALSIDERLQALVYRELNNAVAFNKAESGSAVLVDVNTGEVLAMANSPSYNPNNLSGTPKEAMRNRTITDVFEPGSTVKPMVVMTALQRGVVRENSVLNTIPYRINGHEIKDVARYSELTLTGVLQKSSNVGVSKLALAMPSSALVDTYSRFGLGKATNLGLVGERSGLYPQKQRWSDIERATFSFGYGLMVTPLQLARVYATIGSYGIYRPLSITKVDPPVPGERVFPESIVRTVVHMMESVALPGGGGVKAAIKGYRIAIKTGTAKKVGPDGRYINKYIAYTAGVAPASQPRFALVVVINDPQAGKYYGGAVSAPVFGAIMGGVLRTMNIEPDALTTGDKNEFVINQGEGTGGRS", "experiment": "biochemical", "set-up": "Thermal shift assay, Protein Thermal Shift dye, 3 uM E. coli PBP3, change in melting temperature", "conditions": "read-out: Average DTm/°C", "procedure": "The thermal shift assay was carried out using the Protein Thermal Shift™ assay kit (Applied Biosystems). 3 μM of purified E. coli PBP3 was incubated with the β-lactam analogues at 300 μM concentration in a mixture containing the Protein Thermal Shift™ Dye. The samples were then heated in a StepOnePlus™ Real-Time PCR System from 25 to 95 °C at a rate of 1 °C min^−1. Tests were carried out in triplicate and the averages plotted as the negative first derivative vs. temperature. Reference wells, i.e. solutions consisting only of only PBP3 with dye, PBP3 only, and dye only, were used as controls. Melting temperature (Tm) values were determined with and without each compound, and the change in melting temperature (ΔTm) was obtained, Fig. 2. The thermal shift assay with PBP4 was carried out using the protocol described for PBP3, with the follow deriviatisation: 500 nM of purified Bacillus subtilis PBP4 was incubated with 50 μM of the β-lactam analogues. A thermal shift assay was used to investigate the binding of the cephalexin analogues to the therapeutic target, PBP, in vitro. This assay provides a fast and inexpensive method of detecting a ligand binding to a protein of interest. Briefly, the protein is gradually heated in the presence of a fluorescent dye that binds non-specifically to the hydrophobic surfaces. […] A change in the melting temperature (Tm) when the protein is heated in the presence of a ligand, indicates a protein–ligand interaction. […] The PBPs can be divided into two main categories: high molecular mass (HMM) and low molecular mass (LMM).[13] PBP3 was chosen as a representative HMM PBP, and PBP4 as a representative LMM PBP. Cephalexin (1) has been previously reported to show good binding affinities for both PBP3 and PBP4.[14] Penicillin (11) and cefpodoxime (12) were included as positive controls. A truncated version of the ftsI gene formed of residues W44-S588, encoding only the soluble domain, was amplified from E. coli BW25113. The resulting construct was inserted into the vector pBADnLIC2005,[40] introducing an N-terminal deca-histidine tag when expressed. The resulting vector was transformed into E. coli MC1061 for expression. Cultures for protein expression were grown in 1 L of Luria–Bertani (LB) broth at 37 °C on an orbital shaker. Expression was induced by addition of 0.01% L-arabinose during mid-log phase of growth. Cultures were further incubated for 16 h at 20 °C, then the cells were harvested by centrifugation. Cell pellets were resuspended in 50 mM KPi pH 7.8, 200 mM NaCl, 10 mM imidazole, 20% glycerol with 1 mM [compound left out] followed by sonication. The lysate was clarified by centrifugation before loading onto a HisTrap HF column (GE Healthcare). To remove any pre-bound ligands, refolding purification was performed by initially washing with the protein unfolding buffer [2 M guanidine HCl, 50 mM KPi (pH 7.8), 200 mM NaCl, 20% glycerol, and 20 mM imidazole] and then performing a gradient wash to the protein refolding buffer [50 mM KPi (pH 7.8), 200 mM NaCl, 20% glycerol, and 20 mM imidazole] before the elution of the protein using the elution buffer [50 mM KPi (pH 7.8), 200 mM NaCl, 20% glycerol, and 500 mM imidazole]. The eluted protein was buffer-exchanged to the buffer 50 mM KPi (pH 7.8), 200 mM NaCl using a HisTrap Desalting (GE Healthcare) column."}, "S. aureus": {"tested_on": "T2, S. aureus", "T2 construct": "NCTC 6571", "set-up": "species or system Staphylococcus aureus NCTC 6571; broth growth inhibition, OD600, fitted MIC from dose curve, TSB, 37 C", "conditions": "16 h; inhibitor", "procedure": "Stock solutions of each compound were prepared in 50% DMSO/water at ×100 the final concentration. In a 96-well plate, 2 μL of the test compounds were added to each well. Each plate included the positive control (750 μg mL^−1 chloramphenicol), the negative control (50% DMSO/water) and media only wells. To each test well was then added 198 μL of the required bacteria stock (OD 0.05). E. coli assays were carried out using LB broth, S. aureus were carried out using tryptic soy broth (TSB). Plates were incubated at 37 °C and the OD600 was measured (Epoch 2 Microplate Spectrophotometer, BioTek) every 30 min over a 17 h period. Tests were carried out in triplicate, the background absorbance was removed using reference wells, and the averages were determined. Dose curves were plotting using the OD600 after 16 h growth vs. compound concentration. MICs were defined as the minimum concentration of compound at which no significant growth was observed after 16 h incubation. MIC values were determined using GraphPad Prism (version 8.3.0). The activity of 1–12 was investigated with growth assays against Staphylococcus aureus (NCTC 6571). S. aureus is a virulent Gram-positive pathogen that can cause a wide range of infections in humans.[29,30] Each compound was tested at 400–6 μM concentrations, with lower concentrations tested as required."}},
  "data": [
    {"smiles": "CC1=C(C(=O)O)N2C(=O)[C@@H](NC(=O)[C@H](NC(=O)COCC(=O)NCCOCCOCCOCCOCCNC(=O)CCCCCN3C(=O)C=CC3=O)c3ccccc3)[C@H]2SC1", "note": "[compound 2, (6R,7R)-7-((R)-30-(2,5-Dioxo-2,5-dihydro-1H-pyrrol-1-yl)-4,8,25-trioxo-2-phenyl-6,12,15,18,21-pentaoxa-3,9,24-triazatriacontanamido)-3-methyl-8-oxo-5-thia-1-azabicyclo[4.2.0]oct-2-ene-2-carboxylic acid]", "values": [
      {"measurement": "ΔTm at 300 µM", "setting": "PBP3", "result": 4.72, "unit": "°C"},
      {"measurement": "MIC (S. aureus, best-fit)", "setting": "S. aureus", "result": "9.255e-05", "unit": "M"}
    ]},
    {"smiles": "CC1=C(C(=O)O)N2C(=O)[C@@H](NC(=O)[C@H](N)c3ccccc3)[C@H]2SC1", "note": "[compound 1, cephalexin]", "values": [
      {"measurement": "ΔTm at 300 µM", "setting": "PBP3", "result": 1.61, "unit": "°C"},
      {"measurement": "MIC (S. aureus, best-fit)", "setting": "S. aureus", "result": "1.89e-05", "unit": "M"}
    ]},
    {"smiles": "CC(=O)N[C@@H](C(=O)N[C@@H]1C(=O)N2C(C(=O)O)=C(C)CS[C@H]12)c1ccccc1", "note": "[compound 8, (6R,7R)-7-[(2R)-2-Acetamido-2-phenylacetamido]-3-methyl-8-oxo-5-thia-1-azabicyclo[4.2.0]oct-2-ene-2-carboxylic acid]", "values": [
      {"measurement": "ΔTm at 300 µM", "setting": "PBP3", "result": 3.01, "unit": "°C"},
      {"measurement": "MIC (S. aureus, best-fit)", "setting": "S. aureus", "result": "~ 5.897e-005 M"}
    ]},
    {"smiles": "CC1=C(C(=O)O)N2C(=O)[C@@H](NC(=O)[C@H](NC(=O)CCCC(=O)O)c3ccccc3)[C@H]2SC1", "note": "[compound 7, (6R,7R)-7-[(2R)-2-(4-Carboxybutanamido)-2-phenylacetamido]-3-methyl-8-oxo-5-thia-1-azabicyclo[4.2.0]oct-2-ene-2-carboxylic acid]", "values": [
      {"measurement": "ΔTm at 300 µM", "setting": "PBP3", "result": 3.6, "unit": "°C"},
      {"measurement": "MIC (S. aureus, best-fit)", "setting": "S. aureus", "result": "8.144e-05", "unit": "M"}
    ]},
    {"smiles": "CC1=C(C(=O)O)N2C(=O)[C@@H](NC(=O)[C@H](NC(=O)CCCC(=O)ON3C(=O)CCC3=O)c3ccccc3)[C@H]2SC1", "note": "[compound 6, (6R,7R)-7-[(2R)-2-{5-[(2,5-Dioxopyrrolidin-1-yl)oxy]-5-oxopentanamido}-2-phenylacetamido]-3-methyl-8-oxo-5-thia-1-azabicyclo[4.2.0]oct-2-ene-2-carboxylic acid]", "values": [
      {"measurement": "ΔTm at 300 µM", "setting": "PBP3", "result": 3.21, "unit": "°C"},
      {"measurement": "MIC (S. aureus, best-fit)", "setting": "S. aureus", "result": "8.29e-05", "unit": "M"}
    ]},
    {"smiles": "COCC1=C(C(=O)O)N2C(=O)[C@@H](NC(=O)/C(=N\\OC)c3csc(N)n3)[C@H]2SC1", "note": "[compound 12, cefpodoxime]", "values": [
      {"measurement": "ΔTm at 300 µM", "setting": "PBP3", "result": 4.42, "unit": "°C"},
      {"measurement": "MIC (S. aureus, best-fit)", "setting": "S. aureus", "result": "2.094e-05", "unit": "M"}
    ]},
    {"smiles": "CC1=C(C(=O)O)N2C(=O)[C@@H](NC(=O)[C@H](NC(=O)OC(C)(C)C)c3ccccc3)[C@H]2SC1", "note": "[compound 9, (6R,7R)-7-[(2R)-2-{[(Tert-butoxy)carbonyl]amino}-2-phenylacetamido]-3-methyl-8-oxo-5-thia-1-azabicyclo[4.2.0]oct-2-ene-2-carboxylic acid]", "values": [
      {"measurement": "ΔTm at 300 µM", "setting": "PBP3", "result": 1.61, "unit": "°C"},
      {"measurement": "MIC (S. aureus, best-fit)", "setting": "S. aureus", "result": "1.097e-05", "unit": "M"}
    ]},
    {"smiles": "CC1=C(C(=O)O)N2C(=O)[C@@H](NC(=O)[C@H](NC(=O)CCCCCN3C(=O)C=CC3=O)c3ccccc3)[C@H]2SC1", "note": "[compound 3, (6R,7R)-7-((R)-2-(6-(2,5-dioxo-2,5-dihyrdo-1H-pyrrol-1-yl)hexanamido)-2-phenylacetamido)-3-methyl-8-oxo-5-thia-1-azabicyclo[4.2.0]oct-2-ene-2-carboxylic acid]", "values": [
      {"measurement": "ΔTm at 300 µM", "setting": "PBP3", "result": 3, "unit": "°C"},
      {"measurement": "MIC (S. aureus, best-fit)", "setting": "S. aureus", "result": "~ 5.580e-005 M"}
    ]},
    {"smiles": "CC1=C(C(=O)O)N2C(=O)[C@@H](NC(=O)[C@H](NC(=O)CCCCC3CCSS3)c3ccccc3)[C@H]2SC1", "note": "(stereo partly drawn) [compound 5, (6R,7R)-7-[(2R)-2-[5-(1,2-Dithiolan-3-yl)pentanamido]-2-phenylacetamido]-3-methyl-8-oxo-5-thia-1-azabicyclo[4.2.0]oct-2-ene-2-carboxylic acid]", "values": [
      {"measurement": "ΔTm at 300 µM", "setting": "PBP3", "result": 3.01, "unit": "°C"},
      {"measurement": "MIC (S. aureus, best-fit)", "setting": "S. aureus", "result": "2.493e-05", "unit": "M"}
    ]},
    {"smiles": "CC1=C(C(=O)O)N2C(=O)[C@@H](NC(=O)[C@H](NC(=O)CCCCN)c3ccccc3)[C@H]2SC1", "note": "[compound 10, (6R,7R)-7-[(2R)-2-(5-Aminopentanamido)-2-phenylacetamido]-3-methyl-8-oxo-5-thia-1-azabicyclo[4.2.0]oct-2-ene-2-carboxylic acid]", "values": [
      {"measurement": "ΔTm at 300 µM", "setting": "PBP3", "result": 2.81, "unit": "°C"},
      {"measurement": "MIC (S. aureus, best-fit)", "setting": "S. aureus", "result": "5.135e-05", "unit": "M"}
    ]},
    {"smiles": "C#CCCC(=O)N[C@@H](C(=O)N[C@@H]1C(=O)N2C(C(=O)O)=C(C)CS[C@H]12)c1ccccc1", "note": "[compound 4, (6R,7R)-3-Methyl-8-oxo-7-[(2R)-2-(pent-4-ynamido)-2-phenylacetamido]-5-thia-1-azabicyclo[4.2.0]oct-2-ene-2-carboxylic acid]", "values": [
      {"measurement": "ΔTm at 300 µM", "setting": "PBP3", "result": 3.01, "unit": "°C"},
      {"measurement": "MIC (S. aureus, best-fit)", "setting": "S. aureus", "result": "~ 3.501e-005 M"}
    ]}
  ]
}
